Entries after “also recorded” stand apart in the source; their conditions may differ.

For this series, the system named is iBMECs. As to the kind of experiment: blood-to-brain permeability of fluorescent molecules across iBMEC monolayers on transwells, monoculture or brain region-specific NVUs. Conditions: iBMECs alone or co-cultured over primary rat neural cultures (cortex, striatum, hippocampus, cerebellum, spinal cord); one-way ANOVA, Tukey; result in words. As to the method: In order to obtain region-specific primary neural cultures, E18 rat embryos were extracted from a pregnant female. Embryos were dissected and several regions of the CNS were separated including cortex, striatum, hippocampus, cerebellum and spinal cord. The regions were enzymatically dissociated into single cells before seeded pre-coated MEA plates and petri dishes, in which they were cultured in Neurobasal medium (Sigma) for two weeks. In order to validate the various primary cell cultures, the cells were stained for the neuronal marker βIII-tubulin and the glial marker GFAP (FIG. 2).
iPSCs were differentiated into iBMECs as previously described. On Day 8 of differentiation, cells were enzymatically dissociated into single cell suspensions and seeded on precoated transwell inserts. 24 hours post seeding, iBMEC inserts were placed on top of primary neural cultures derived from the different CNS regions (FIG. 3) where they were cultured for three additional days.
Fluorescence was measured using a plate reader and calculated into concentrations using a calibration curve with known concentrations. Next, the inventors plotted the chart and extracted the slope for each transwell. Slopes from empty transwells were subtracted from the obtained value and the results were used to calculate the permeability, expressed as 10-5 cm/min.

For the compound `O=C([O-])c1ccccc1-c1c2ccc(=O)cc-2oc2cc([O-])ccc12.[Na+].[Na+]` [sodium fluorescein], the “differences in permeability between iBMEC monoculture and NVUs of different brain regions” value was “significantly more permeable in the monoculture compared to the NVUs of the cortex, cerebellum, striatum and hippocampus; also recorded: significance differences in permeability were also observed between spinal cord and other NVUs”.
For `O=[N+]([O-])c1ccc(N[C@H]2C(O)O[C@H](CO)[C@@H](O)[C@@H]2O)c2nonc12` (stereo partly drawn) [2-NDBG, 2-[N-(7-nitrobenz-2-oxa-1,3-diazol-4-yl)amino]-2-deoxy-D-glucose] the value was “not different between the NVUs”.

Source of the values: patent US20230056360A1, “BLOOD-BRAIN-BARRIER SYSTEMS” (priority 2020, published 2023).
